Measurements reported in the supplement of paper PMC8149375.

Columns and labels:
Conditions in all cases: treatment: drug alone; 5 days
[1] = test system: UO-31; assay: AUC of dose-response viability curve, drug alone (arbitrary (AUC of normalised viability)); higher = less growth inhibition
Description: (§1)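 Primary HTS: 8 RCC cell lines treated with 8 doses (up to 10 uM) of each library drug alone for 5 days; viability read by CellTiter-Glo and normalised to DMSO. GI50 was fitted with XLfit (4-parameter), AUC is the area under the dose-response curve, and minimum viability is the lowest fraction of DMSO viability across doses.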

[2] = test system: A498; assay: as above
Description: as §1

[3] = test system: CAKI-1; assay: as above
Description: as §1

[4] = test system: ACHN; assay: as above
Description: as §1

[5] = test system: 769-P; assay: as above
Description: as §1

[6] = test system: SN12C; assay: as above
Description: as §1

[7] = test system: TK-10; assay: as above
Description: as §1

[8] = test system: 786-O; assay: as above
Description: as §1

[9] = test system: UO-31; assay: minimum viability across doses, drug alone, relative to DMSO (fraction); higher = less growth inhibition
Description: as §1

[10] = test system: A498; assay: as above
Description: as §1

[11] = test system: CAKI-1; assay: as above
Description: as §1

[12] = test system: ACHN; assay: as above
Description: as §1

[13] = test system: 769-P; assay: as above
Description: as §1

[14] = test system: SN12C; assay: as above
Description: as §1

[15] = test system: TK-10; assay: as above
Description: as §1

[16] = test system: 786-O; assay: as above
Description: as §1

[17] = test system: UO-31; assay: GI50, drug alone; higher = less potent
Description: as §1

[18] = test system: A498; assay: GI50, drug alone; higher = less potent
Description: as §1

[19] = test system: CAKI-1; assay: GI50, drug alone; higher = less potent
Description: as §1

[20] = test system: ACHN; assay: GI50, drug alone; higher = less potent
Description: as §1

[21] = test system: 769-P; assay: GI50, drug alone; higher = less potent
Description: as §1

[22] = test system: SN12C; assay: GI50, drug alone; higher = less potent
Description: as §1

[23] = test system: TK-10; assay: GI50, drug alone; higher = less potent
Description: as §1

[24] = test system: 786-O; assay: GI50, drug alone; higher = less potent
Description: as §1

GI50, drug alone [20] [µM]	GI50, drug alone [24] [µM]	Compound	AUC of dose-response viability curve [1]	AUC of dose-response viability curve [2]	AUC of dose-response viability curve [3]	AUC of dose-response viability curve [4]	AUC of dose-response viability curve [5]	AUC of dose-response viability curve [6]	AUC of dose-response viability curve [7]	AUC of dose-response viability curve [8]	minimum viability across doses [9]	minimum viability across doses [10]	minimum viability across doses [11]	minimum viability across doses [12]	minimum viability across doses [13]	minimum viability across doses [14]	minimum viability across doses [15]	minimum viability across doses [16]	GI50, drug alone [17] [µM]	GI50, drug alone [18] [µM]	GI50, drug alone [19] [µM]	GI50, drug alone [21] [µM]	GI50, drug alone [22] [µM]	GI50, drug alone [23] [µM]
> 10	> 10	O=c1c(O)c(-c2ccc(O)c(O)c2)oc2cc(O)cc(O)c12 [Quercetin (Sophoretin)]	3.57	3.6	3.2	3.48	3.3	3.13	3.01	2.36	0.807	0.923	0.861	0.899	0.784	0.821	0.736	0.53	> 10	> 10	> 10	> 10	> 10	> 10
3.48	1.36	CC(C)(C)c1cc(NC(=O)Nc2ccc(-c3cn4c(n3)sc3cc(OCCN5CCOCC5)ccc34)cc2)no1 [Quizartinib (AC220)]	5.25	4.53	2.38	2.72	2.98	3.25	2.84	2.76	1.16	1.07	0.408	0.381	0.234	0.819	0.612	0.129	> 10	> 10	2.62	4.3	> 10	> 10
1.42	1.59	COc1cc(Nc2ncc(F)c(Nc3ccc4c(n3)NC(=O)C(C)(C)O4)n2)cc(OC)c1OC [R406(free base)]	4.5	4.42	2.61	2.35	3.13	2.79	2.44	2.21	0.0454	1	0.142	0.306	0.474	0.359	0.396	0.128	8.51	> 10	1.26	9.62	3.89	4.07
5.85	2.01	COc1cc(Nc2ncc(F)c(Nc3ccc4c(n3)NC(=O)C(C)(C)O4)n2)cc(OC)c1OC.O=S(=O)(O)c1ccccc1 [R406]	2.59	3.57	2.59	2.94	3.1	3.11	2.85	2.46	0.164	0.882	0.183	0.451	0.536	0.336	0.479	0.221	8.77	> 10	1.33	> 10	4.6	9.02
